Experimental data reported in patent US12637464B2, “Tetracyclic compounds for treating brain disorders” (The Regents of the University of California, priority 2021, dated 2026).

Assays:
serotonin receptors = test: Radioligand binding selectivity panel (Eurofins Discovery); details: FIG. 3A; binding profile compared to (+)-LSD
C57BL/6J mice = test: 4-odor discrimination and reversal; type: in vivo, mouse; details: 1 mg/kg IP
Experimental: 4-Odor Discrimination and Reversal. A 4-odor discrimination and reversal behavioral assay was performed as described previously with slight modifications. Food restriction was begun five days before the discrimination and reversal tests to reduce animals' body weight to ˜80% of their starting weight. A total of 31 C57BL/6J mice 2-3 months of age were used in this assay. Eleven mice (5 males, 6 females) served as VEH/unstressed controls, 10 animals (4 males, 6 females) as a VEH/stress group, and 10 animals (4 males, 6 females) as a treatment/stress group. Both the VEH/stress and […] groups were subjected to a 7-day unpredictable mild stress protocol using previously validated stressors. Two stressors were delivered during the day, with additional overnight stressors on 4 of the days. […]

In the case of `CCN(CC)C(=O)[C@@H]1C=C2c3cccc4ccn(c34)C[C@H]2N(C)C1` [(+)-JRT], the “receptor selectivity (binding profile)” value (serotonin receptors) is reported as “highly selective for serotonin receptors”, the stimulus discrimination (C57BL/6J mice; 4-odor discrimination phase, stressed mice) is reported as “does not impact stimulus discrimination” and the “cognitive deficits induced by unpredictable mild stress (reversal)” value (C57BL/6J mice; reversal phase, after 7-day unpredictable mild stress) is reported as “rescues cognitive deficits induced by unpredictable mild stress”.
